Legend:
[1] = Evaluation of metabolic stability with human liver microsomes (HPLC remaining rate); format: in vitro ADME; details: 37° C.; for metabolic stability / degradation by human liver microsomes (in words): Example 1, 0-6 hours, FIG. 2; for temporal change in the remaining rate in the presence of human liver microsomes: 0.1 M PBS (pH 7.4), HPLC, n=3, FIG. 4
Description: 60 μL was aliquoted from an ethanol solution (1 mg/1 mL) of the synthetic compound to be evaluated, and the solvent was removed. A 0.1 M PBS buffer (435 μL, pH 7.4), CH3CN (10 μL), an NADPH regeneration system A solution (25 μL), and an NADPH regeneration system B solution (5 μL) were added to each compound, and stirring was carried out with a vortex mixer. After incubating the obtained reaction solution at 37° C. for 5 minutes, human liver microsomes (Corning (registered trade name) UltraPool (registered trade name) HLM 150) (25 μL) were added thereto, and 80 μL of the solution was aliquoted every hour (after 0, 1, 2, 3, and 6 hours from the addition). Each of the aliquoted solutions was quenched by adding CH3CN (80 μL) and then centrifuged (10,000 rpm) for 3 minutes at room temperature. The supernatant was collected and analyzed by using HPLC (COSMOSIL 5C18-MS-II, 4.6 mm×250 mm, CH3CN/H2O/TFA=35/65/0.01, 1.0 mL/min, detection at 254 nm).
The metabolic stability of 17-deoxy-o-BZ-RvE2 and 5-deoxy-o-BZ-RvE2 with respect to human liver microsomes was investigated. Specifically, for RvE2, o-BZ-RvE2, 17-deoxy-o-BZ-RvE2, and 5-deoxy-o-BZ-RvE2, the temporal change in the remaining rate (%) was measured by HPLC in 0.1 M PBS (pH 7.4) in the presence of human liver microsomes at 37° C. (n=3).

[2] = test system: mouse acute inflammation model induced by intraperitoneally transplanting Propionibacterium acnes; test: Anti-inflammatory property evaluation assay: neutrophil count in peritoneal exudate of the P. acnes-induced mouse acute inflammation model; format: in vivo, mouse (male BALB/c); details: for number of neutrophils in peritoneal exudate as compared with P. acnes-inoculated control mice / anti-inflammatory activity as compared with the RvE2 and o-BZ-RvE2 groups: 300 pg intraperitoneally 8 hours after P. acnes injection, FIG. 3; for number of neutrophils in peritoneal exudate as compared with P. acnes-inoculated control mice: n=3 or 4
Description: The strength of the anti-inflammatory action of each compound was evaluated by using a mouse acute inflammation model induced by intraperitoneally transplanting Propionibacterium acnes.
The mouse acute inflammation model was produced using male BALB/c mice (6 to 7 weeks, obtained from Japan SLC Inc.). First, Propionibacterium acnes (P. acnes; 500 μg per mouse) subjected to heat sterilization was intraperitoneally injected into a mouse to prepare an acute inflammation model mouse. Eight or twelve hours after the injection of Propionibacterium acnes, the test compound was intraperitoneally administered to an acute inflammation model mouse. Then, 24 hours after the injection of Propionibacterium acnes, a peritoneal exudate was collected and the number of neutrophils was counted.
Then, 24 hours after the injection of Propionibacterium acnes, a peritoneal exudate was collected and the number of neutrophils was counted.
12 hours after the injection of Propionibacterium acnes, 300 fg, 300 pg, or 300 ng of RvE2 or o-BZ-RvE2, or only a solvent was independently intraperitoneally administered to acute inflammation model mice (n=3 or 4). Then, 24 hours after the injection of Propionibacterium acnes, a peritoneal exudate was collected and the number of neutrophils was counted.
300 pg of RvE2, o-BZ-RvE2, 17-deoxy-o-BZ-RvE2, 5-deoxy-o-BZ-RvE2, or 5,17-dideoxy-o-BZ-RvE2, or only a solvent was intraperitoneally administered to acute inflammation model mice 8 hours after the injection of Propionibacterium acnes (n=3 or 4). Then, 24 hours after the injection of Propionibacterium acnes, a peritoneal exudate was collected and the number of neutrophils was counted.

[3] = background statement; cited from earlier work
[4] = background statement; cited from earlier work; remark: listed apart in the source
[5] = exudate collected 24 hours after injection

Row | SMILES | metabolic stability / degradation by human liver microsomes (in words) [1] | number of neutrophils in peritoneal exudate as compared with P. acnes-inoculated control mice [2, 5] | infiltration of neutrophils into the abdominal cavity (number of neutrophils in peritoneal exudate) as compared with solvent alone ([2]; 300 pg intraperitoneally 12 hours after P. acnes injection, exudate collected 24 hours after injection, n=4, FIG. 1(a)) | anti-inflammatory action as compared with RvE2 ([2]; 300 fg, 300 pg or 300 ng intraperitoneally 12 hours after P. acnes injection, exudate at 24 hours, FIGS. 1(a) and 1(b)) | temporal change in the remaining rate in the presence of human liver microsomes [1] | anti-inflammatory activity as compared with the RvE2 and o-BZ-RvE2 groups ([2]; exudate at 24 hours) | stability with respect to oxygen as compared with RvE2 [3] | metabolic stability [4]
1 | CC[C@@H](O)/C=C/c1ccccc1C/C=C/[C@@H](O)CCCC(=O)O [o-BZ-RvE2] | excellent in metabolic stability | significantly decreased | significantly suppressed | excellent anti-inflammatory action as compared with RvE2 | – | – | – | –
2 | CC[C@@H](O)/C=C/C=C\C/C=C\C/C=C\C=C\[C@@H](O)CCCC(=O)O [RvE2, (5S,6E,8Z,11Z,14Z,16E,18R)-5,18-dihydroxyicosa-6,8,11,14,16-pentaenoic acid, reference compound] | easily degraded | significantly decreased | – | – | decreased with the passage of time | – | – | –
3 | CC[C@@H](O)/C=C/c1ccccc1C/C=C/CCCCC(=O)O [5-deoxy-o-BZ-RvE2] | – | significantly decreased | – | – | gradually decreased as compared with RvE2 | attenuated | – | –
4 | CCC/C=C/c1ccccc1C/C=C/CCCCC(=O)O [5,17-dideoxy-o-BZ-RvE2] | – | significantly decreased | – | – | – | attenuated | – | –
5 | CCC(O)C=CC=CCC1CC1CC=CC=CC(O)CCCC(=O)O (centres unmarked) [CP-RvE2] | – | – | – | – | – | – | improved stability with respect to oxygen | insufficient metabolic stability

Reference: patent US20230099067A1, “STABLE EQUIVALENT OF RESOLVIN E2” (NATIONAL UNIVERSITY CORPORATION HOKKAIDO UNIVERSITY, priority 2020, published 2023)
